Experimental data published in ChEMBL document CHEMBL1275601, “Striking species difference in the contribution of concentrative nucleoside transporter 2 to nucleoside uptake between mouse and rat hepatocytes” (Antimicrob Agents Chemother, 2010).
The source made the active and inactive calls.

Columns and labels:
Format in all cases: cell-based
Conditions in all cases: Hepatocyte
[1] = target: T1, Sodium/nucleoside cotransporter 2 (Mus musculus) (UniProt O88627); experiment: Transport through CNT2 in mouse hepatocytes by oil filtration assay pre-incubated with 20 ng/mL rotenone for 15 mins and 2 mM 2-deoxyglucose for 10 mins at 37 degC in Kreb-henseleit buffer
T1 sequence (whole entry): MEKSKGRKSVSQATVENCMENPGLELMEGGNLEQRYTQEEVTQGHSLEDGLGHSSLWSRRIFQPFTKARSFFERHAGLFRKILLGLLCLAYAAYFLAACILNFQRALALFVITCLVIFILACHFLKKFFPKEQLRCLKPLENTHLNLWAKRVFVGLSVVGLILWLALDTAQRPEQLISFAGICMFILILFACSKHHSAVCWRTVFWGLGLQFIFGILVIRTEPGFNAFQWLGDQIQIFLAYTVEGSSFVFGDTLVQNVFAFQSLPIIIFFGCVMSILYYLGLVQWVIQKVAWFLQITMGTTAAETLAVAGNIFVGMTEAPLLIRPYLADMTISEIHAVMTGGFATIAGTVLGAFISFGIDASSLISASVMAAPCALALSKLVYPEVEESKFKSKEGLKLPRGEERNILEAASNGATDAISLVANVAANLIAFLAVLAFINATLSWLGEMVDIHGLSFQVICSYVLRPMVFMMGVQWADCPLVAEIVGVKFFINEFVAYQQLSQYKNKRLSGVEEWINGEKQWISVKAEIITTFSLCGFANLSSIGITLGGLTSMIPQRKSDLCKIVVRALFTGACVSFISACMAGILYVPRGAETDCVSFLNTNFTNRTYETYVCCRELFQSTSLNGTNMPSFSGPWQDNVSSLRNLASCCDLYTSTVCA

[2] = target: T2, Sodium/nucleoside cotransporter 2 (Rattus norvegicus) (UniProt Q62773); experiment: Transport through CNT2 in rat hepatocytes by oil filtration assay pre-incubated with 20 ng/mL rotenone for 15 mins and 2 mM 2-deoxyglucose for 10 mins at 37 degC in Kreb-henseleit buffer
T2 sequence (whole entry): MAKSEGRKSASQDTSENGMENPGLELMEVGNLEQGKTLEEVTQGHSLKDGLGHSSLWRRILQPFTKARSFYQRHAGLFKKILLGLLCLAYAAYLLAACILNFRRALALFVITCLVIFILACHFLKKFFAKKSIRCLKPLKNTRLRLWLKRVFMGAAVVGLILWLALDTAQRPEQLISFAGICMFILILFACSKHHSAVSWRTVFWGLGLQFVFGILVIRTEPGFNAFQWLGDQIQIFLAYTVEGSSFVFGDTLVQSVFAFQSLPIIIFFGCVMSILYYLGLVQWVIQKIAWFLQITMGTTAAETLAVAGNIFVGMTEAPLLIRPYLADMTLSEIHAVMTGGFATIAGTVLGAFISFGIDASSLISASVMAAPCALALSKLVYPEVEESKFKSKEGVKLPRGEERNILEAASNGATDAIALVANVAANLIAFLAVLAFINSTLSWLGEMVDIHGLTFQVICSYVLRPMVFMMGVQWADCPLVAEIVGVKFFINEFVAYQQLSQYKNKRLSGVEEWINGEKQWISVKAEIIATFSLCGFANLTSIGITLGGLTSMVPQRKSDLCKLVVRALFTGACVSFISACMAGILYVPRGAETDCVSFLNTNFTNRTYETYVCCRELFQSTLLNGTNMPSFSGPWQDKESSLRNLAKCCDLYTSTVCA

[3] = target: T2, Sodium/nucleoside cotransporter 2 (Rattus norvegicus); experiment: Transport through CNT2 in rat hepatocytes by oil filtration assay pre-incubated with 20 ng/mL rotenone for 15 mins and 2 mM 2-deoxyglucose for 10 mins at 37 degC in presence of sodium ions in Kreb-henseleit buffer containing 100 nM NBMPR

Measured: Activity

NC(=O)c1ncn([C@@H]2O[C@H](CO)[C@@H](O)[C@H]2O)n1
active: all assays above
